Experimental data as given in the supplement of paper PMC10307832.

Experiments:
Test in all cases: relative viability (nuclei count vs DMSO), 5 days (fraction); higher = more cells survive
[1] = compound: C1/C(=C\C2=CC=CS2)/C(=O)/C(=C/C3=CC=CS3)/C1 + O=C(CCCCCCC(=O)Nc1ccccc1)NO [Vorinostat] (partner 1 µM)
Procedure, shortened: (§1)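 Lung cancer cell lines in 1536-well plates got either a single drug or a fixed anchor-drug dose together with five library-drug doses (not always all listed) in √10 steps, by pin tool, on the day after seeding. Nuclei were counted after 5 days, and relative viability is the treated-to-vehicle ratio of nuclei counts. Values are medians of duplicate plates.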

[2] = compound: C1/C(=C\C2=CC=CS2)/C(=O)/C(=C/C3=CC=CS3)/C1 + COc1cccc2cc(-c3nc([C@H]4CC[C@H](C(=O)O)CC4)n4ncnc(N)c34)[nH]c12 [OSI-027] (partner 0.5 µM)
Procedure, shortened: as §1

[3] = compound: C1/C(=C\C2=CC=CS2)/C(=O)/C(=C/C3=CC=CS3)/C1 + Nc1nc2[nH]cc(CCc3ccc(C(=O)N[C@@H](CCC(=O)O)C(=O)O)cc3)c2c(=O)[nH]1 [Pemetrexed] (partner 0.2 µM)
Procedure, shortened: as §1

TPCA-1 + Pictilisib = compound: C1=CC(=CC=C1C2=CC(=C(S2)NC(=O)N)C(=O)N)F [TPCA-1] + CS(=O)(=O)N1CCN(Cc2cc3nc(-c4cccc5[nH]ncc45)nc(N4CCOCC4)c3s2)CC1 [Pictilisib] (partner 1 µM)
Procedure, shortened: as §1

Row | Cell Line | relative viability ([1]; first compound 0.2 µM) | relative viability ([1]; first compound 0.6325 µM) | relative viability ([1]; first compound 2 µM) | relative viability ([1]; first compound 6.325 µM) | relative viability ([1]; first compound 20 µM) | relative viability ([2]; first compound 0.2 µM) | relative viability ([2]; first compound 0.6325 µM) | relative viability ([2]; first compound 2 µM) | relative viability ([2]; first compound 6.325 µM) | relative viability ([2]; first compound 20 µM) | relative viability ([3]; first compound 0.2 µM) | relative viability ([3]; first compound 0.6325 µM) | relative viability ([3]; first compound 2 µM) | relative viability ([3]; first compound 6.325 µM) | relative viability ([3]; first compound 20 µM) | relative viability (TPCA-1 + Pictilisib; first compound 0.04 µM) | relative viability (TPCA-1 + Pictilisib; first compound 0.1265 µM) | relative viability (TPCA-1 + Pictilisib; first compound 0.4 µM) | relative viability (TPCA-1 + Pictilisib; first compound 1.265 µM) | relative viability (TPCA-1 + Pictilisib; first compound 4 µM)
1 | 201T | 0.965 | 0.951 | 1.07 | 0.728 | 0.935 | 0.691 | 0.753 | 0.82 | 0.662 | 0.69 | 0.351 | 0.367 | 0.333 | 0.313 | 0.33 | 0.733 | 0.66 | 0.687 | 0.663 | 0.632
2 | A549 | – | – | – | – | – | – | – | – | – | – | – | – | – | – | – | 0.676 | 0.517 | – | 0.378 | 0.242
3 | A-427 | 0.884 | 0.838 | 0.855 | 0.828 | 0.89 | 0.481 | 0.465 | 0.491 | 0.445 | 0.442 | 1.02 | 1.04 | 0.89 | 0.943 | 0.941 | 0.756 | 0.591 | 0.687 | 0.626 | 0.164
4 | ABC-1 | 1.17 | 0.964 | 1.5 | 0.724 | 1.24 | 0.645 | 0.583 | 0.647 | 0.426 | 0.498 | – | – | – | – | – | 0.82 | 0.479 | 0.672 | 0.429 | 0.524
5 | BEN | 0.64 | 0.537 | 0.661 | 0.566 | 0.535 | 0.258 | 0.275 | 0.352 | 0.288 | 0.282 | 0.82 | 0.781 | 1.03 | 0.662 | 0.657 | 0.663 | 0.449 | 0.516 | 0.789 | 0.441
6 | CAL-12T | 0.724 | 0.91 | 0.648 | 0.77 | 0.788 | 0.64 | 0.886 | 0.709 | 0.335 | 0.547 | 1.28 | 1.25 | 1.24 | 1.16 | 1.07 | 0.283 | 0.438 | 0.507 | 0.224 | 0.162
7 | COR-L23 | 0.475 | 0.597 | 0.477 | 0.348 | 0.451 | 0.804 | 0.816 | 0.732 | 0.709 | 0.749 | 0.2 | 0.193 | 0.196 | 0.182 | 0.199 | 0.964 | 0.671 | 0.829 | 0.716 | 0.438
8 | COR-L 105 | 0.653 | 0.969 | 0.852 | 0.391 | 0.669 | 0.679 | 0.849 | 0.781 | – | 0.632 | 1.37 | 1.04 | 1.26 | 1.06 | 1.13 | 0.475 | 0.364 | 0.463 | 0.306 | 0.248
9 | Calu-6 | – | – | – | – | – | – | – | – | – | – | – | – | – | – | – | 0.954 | 0.841 | 0.946 | 0.785 | 0.469
10 | ChaGo-K-1 | 0.761 | 0.749 | 0.703 | 0.511 | 0.254 | 0.549 | 0.59 | 0.588 | 0.491 | 0.268 | 0.259 | 0.26 | 0.278 | 0.224 | 0.25 | 0.624 | 0.704 | 0.805 | 0.748 | 0.334
11 | EBC-1 | – | – | – | – | – | – | – | – | – | – | – | – | – | – | – | 0.462 | 0.421 | 0.466 | 0.474 | 0.362
12 | EKVX | 0.893 | 0.625 | 0.873 | – | 0.678 | 0.679 | 0.673 | 0.717 | 0.615 | 0.646 | 0.394 | 0.347 | 0.453 | – | 0.389 | 0.405 | 0.343 | 0.512 | 0.374 | 0.43
13 | EMC-BAC-2 | 0.351 | 0.473 | 0.453 | 0.455 | 0.489 | 0.411 | 0.383 | 0.432 | 0.337 | 0.389 | 0.449 | 0.467 | 0.443 | 0.391 | 0.447 | 0.59 | 0.475 | 0.55 | 0.318 | 0.406
14 | EPLC-272H | 0.464 | 0.384 | 0.615 | 0.318 | 0.358 | 0.349 | 0.284 | 0.285 | 0.238 | 0.265 | 0.351 | 0.468 | 0.334 | 0.301 | 0.373 | 0.381 | 0.285 | 0.341 | 0.38 | 0.32
15 | H3255 | 0.756 | 0.856 | 0.427 | 0.758 | 0.875 | 0.585 | 0.589 | 0.541 | 0.568 | 0.566 | 0.573 | 0.594 | 0.61 | 0.528 | 0.602 | 0.461 | 0.404 | 0.509 | 0.399 | 0.333
16 | HARA | 0.722 | 0.498 | 0.641 | 0.485 | 0.458 | 0.525 | 0.437 | 0.502 | 0.379 | 0.57 | 0.249 | 0.254 | 0.228 | 0.222 | 0.241 | 0.591 | 0.4 | 0.433 | 0.393 | 0.331
17 | HCC-15 | 0.876 | 0.846 | 0.842 | 0.772 | 0.743 | 0.769 | 0.684 | 0.683 | 0.548 | 0.665 | 0.221 | 0.203 | 0.218 | 0.214 | 0.217 | 0.901 | 0.559 | 0.766 | 0.864 | 0.275
18 | HCC-44 | 1.09 | 1.08 | 1.01 | 0.995 | 1.03 | 0.482 | 0.528 | 0.649 | 0.475 | 0.479 | 0.64 | 0.688 | 0.613 | 0.55 | 0.673 | 0.684 | 0.571 | 0.619 | 0.792 | 0.508
